Measurements: US7553824B2, “Kit for determining polysaccharide-binding activity of mononuclear cells present in peripheral blood” (Ajinomoto Co., Inc., priority 2004, dated 2009)
Read-outs that look alike come from different tables or passages of the source.

Assays:
monocytes = test: Test on binding-inhibitory effect of lentinan, human blood; conditions: 100 μg/mL lentinan added before 10 μg/mL fluorescein-labeled lentinan, Cases 3 and 4
Procedure: To the human blood sample, there was added the solution of lentinan (reference reagent 2) in a concentration of […], the resulting mixture was cultured at 37° C. for 15 minutes, fluorescein-labeled lentinan was then added thereto in a concentration of 10 μg/mL and the resulting mixture was further cultivated at 37° C. for additional 30 minutes. Thereafter, a PE-labeled antibody (available from Caltag Company) against human CD14 was added thereto, the resulting mixture was cultured at 37° C. for 30 minutes, 2 mL/tube of FACS Lysing Solution (a hemolysis/fixation liquid available from BD Company; diluted 10 times with distilled water) and then the resulting mixture was allowed to stand at room temperature for 10 minutes for the hemolysis of the blood sample. The subsequent operations and analysis were carried out by repeating the same procedures used above in the binding ability-determining method (in the foregoing paragraph) (the results thus obtained are shown in FIG. 7 (indicated by LNT+FL)). The similar analysis was carried out using fluorescein-labeled dextran as a control (reference reagent 1) for the fluorescein-labeled lentinan.

[1] = system: blood cells (monocytes, granulocytes, lymphocytes); test: Test on binding-inhibitory effect of lentinan, mouse whole blood; design: species or system ICR mice; conditions: 50 μg/mL un-labeled lentinan added before 5-40 μg/mL fluorescein-labeled lentinan, one hour
Procedure: Upon the determination of the binding ability and prior to the dispensation of the whole blood into tubes, a 2 mg/mL lentinan solution diluted 10 times with PBS(−) was introduced into each tube in an amount of 25 μL/tube while ice-cooling the tubes, then the whole blood was dispensed into the tubes in an amount of 65 μL/tube and thereafter, a solution of fluorescein-labeled lentinan was added to each tube in an amount of 10 μL/tube (the final concentration of the lentinan solution for inhibition was set at 50 μg/mL). Then the subsequent operations were carried out according to the same procedures used above in the method for determining the binding ability (the previous section). (The results thus obtained are shown in FIG. 1 (indicated by FL+L50)).

S180 mouse sarcoma cells = conditions: S180 subcutaneously transplanted, cited from earlier work

lentinan
effect on binding of fluorescein-labeled lentinan with cells (monocytes): inhibited
effect on the binding ability of cells to fluorescein-labeled lentinan [1]: inhibited
anti-tumor effect (S180 mouse sarcoma cells; C3H mice): weak anti-tumor effects
anti-tumor effect (S180 mouse sarcoma cells; C57BL/6 mice): medium anti-tumor effects
anti-tumor effect (S180 mouse sarcoma cells; ICR and BALB/c mice): higher anti-tumor effects
